Reference: patent US20260207522A1, “YEAST CELL WALL PARTICLE ENCAPSULATION OF BIODEGRADABLE PRO-PAYLOADS” (UNIVERSITY OF MASSACHUSETTS, priority 2018, published 2026)

Columns and labels:
[1] = loading into yeast cell wall particles; format: physicochemical
Method: To create encapsulated pro-payloads, water-insoluble pro-payloads are dissolved in a suitable solvent compatible with the glucan particles (e.g., dimethylsulfoxide, methanol, etc.). After loading the pro-payloads into glucan shells, the glucan particle pro-payload is processed to remove the solvent.
The pro-payload CS-AcA was dissolved in a suitable solvent and combined with extracted yeast cell wall particles to create encapsulated CS-AcA.
The pro-payload INH-LA was dissolved in a suitable solvent and combined with extracted yeast cell wall particles to create encapsulated INH-LA.

[2] = in vitro release assay of naproxen from YCWPs; format: physicochemical; conditions: pH 7
Method: The pro-payload Nap-An was dissolved in a suitable solvent and combined with extracted yeast cell wall particles to create encapsulated Nap-An.

H. pylori = conditions: concentration of 2 mg/L; cited from earlier work
C. albicans = conditions: Bard et al.; cited from earlier work
S. cerevisiae = conditions: Bard et al.; cited from earlier work

Molecule	amount loaded into yeast cell wall particles [1]	other results
N[C@@H]1CON=C1O [CS, cycloserine]	≤ 14%	–
NNC(=O)c1ccncc1 [INH, isoniazid]	0%	–
CCCCCCCCCCCC(=O)NNC(=O)c1ccncc1 [INH-LA, isoniazid lauric acid]	up to 89%	–
COc1ccc2cc(C(C)C(=O)OC(=O)C(C)c3ccc4cc(OC)ccc4c3)ccc2c1 (stereo not shown) [Nap-An, naproxen anhydride]	–	50% release time (RT50) [2]: greater than 13.5 hours
CC(C)=CCC/C(C)=C/CO [geraniol]	–	in vitro growth of H. pylori (H. pylori): inhibited; growth of C. albicans strains (C. albicans): inhibit the growth; growth of S. cerevisiae strains (S. cerevisiae): inhibit the growth
cycloserine acetylacetone [CS-AcA]	≤ 70%	–
doxorubicin-isoniazid [Dox-INH]	up to 61%	–
doxorubicin-isophorone diisocyanate [Dox-IPDI]	up to 92%	–
